The assay addresses T1, human M2 receptor (Homo sapiens, UniProt P08172).
T1 sequence (P08172 1-466): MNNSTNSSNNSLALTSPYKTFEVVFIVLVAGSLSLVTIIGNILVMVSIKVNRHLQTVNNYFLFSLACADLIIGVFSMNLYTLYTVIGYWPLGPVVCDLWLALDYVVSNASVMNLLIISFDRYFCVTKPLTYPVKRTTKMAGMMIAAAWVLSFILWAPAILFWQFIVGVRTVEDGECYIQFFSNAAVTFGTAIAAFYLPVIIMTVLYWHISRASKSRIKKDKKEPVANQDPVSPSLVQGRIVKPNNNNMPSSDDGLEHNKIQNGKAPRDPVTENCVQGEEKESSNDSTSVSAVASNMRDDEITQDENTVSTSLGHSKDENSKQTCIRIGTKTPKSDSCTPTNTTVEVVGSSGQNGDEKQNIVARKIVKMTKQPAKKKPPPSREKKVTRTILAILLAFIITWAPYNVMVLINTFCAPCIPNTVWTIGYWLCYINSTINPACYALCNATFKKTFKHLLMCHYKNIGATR
The conditions noted are these: for Emax: read-out: Efficiency, boosting of the acetylcholine effect at EC20 acetylcholine concentration; for Efficiency: boosting of the acetylcholine effect at EC20 acetylcholine concentration.

The mark [1] stands for this setting: Receptor activity EC50, M2-GIRK1/4 activation test, acetylcholine at EC20, allosteric potency, in some cases mean values from two or more determinations.
Where [2] appears, read: Receptor activity EC50, allosteric potency at EC20 acetylcholine, M2-GIRK1/4 reporter cells, in some cases mean of two or more determinations.

Read-outs that look alike come from different tables or passages of the source.

A word on the EC50: it is the midpoint of the concentration-response curve. Higher therefore signals a need for much substance. `O=C(NC12CC3CC(CC(C3)C1)C2)c1cn(-c2ccc(F)cc2F)c2nc(N3CCOC(CO)C3)ccc2c1=O` (racemic) [Example 118, rac-1-(2,4-Difluorophenyl)-7-[2-(hydroxymethyl)morpholin-4-yl]-4-oxo-N-(tricyclo[3.3.1.1^3,7]dec-1-yl)-1,4-dihydro-1,8-naphthyridine-3-carboxamide] yielded an EC50 under setting [1] of 91 nM.

The compound `CN(C)c1ccc2c(=O)c(C(=O)Nc3c(F)cccc3F)cn(-c3ccc(F)cc3F)c2n1` [Example 52, 1-(2,4-Difluorophenyl)-N-(2,6-difluorophenyl)-7-(dimethylamino)-4-oxo-1,4-dihydro-1,8-naphthyridine-3-carboxamide] had an EC50 under setting [1] of 104 nM.

With `CC(C)(C)[C@@H](NC(=O)c1cn(-c2c(F)cc(F)cc2F)c2nc(N3CCN(CCO)C3=O)ccc2c1=O)C(F)(F)F` [Example 361, 7-[3-(2-Hydroxyethyl)-2-oxoimidazolidin-1-yl]-4-oxo-N-[(2R)-1,1,1-trifluoro-3,3-dimethylbutan-2-yl]-1-(2,4,6-trifluorophenyl)-1,4-dihydro-1,8-naphthyridine-3-carboxamide], the EC50 under setting [1] was 17 nM.

For the compound `CN(C)c1ccc2c(=O)c(C(=O)NC34CC5CC(CC(F)(C5)C3)C4)cn(-c3ccc(F)cc3F)c2n1` [Example 37, 1-(2,4-Difluorophenyl)-7-(dimethylamino)-N-(3-fluorotricyclo[3.3.1.1^3,7]dec-1-yl)-4-oxo-1,4-dihydro-1,8-naphthyridine-3-carboxamide], the EC50 under setting [1] came out at 23 nM.

`CCC(NC(=O)c1cn(-c2ccc(F)cc2F)c2nc(NCC(F)F)ccc2c1=O)C(F)(F)F` (racemic) [Example 122, rac-7-[(2,2-Difluoroethyl)amino]-1-(2,4-difluorophenyl)-4-oxo-N-[1,1,1-trifluorobutan-2-yl]-1,4-dihydro-1,8-naphthyridine-3-carboxamide] returned an EC50 under setting [1] of 94 nM.

`O=C(N[C@@H](C1CC1)C(F)(F)F)c1cn(-c2c(F)cc(F)cc2F)c2nc(N3C[C@@H](C(=O)O)OC3=O)ccc2c1=O` [Example 667, (5S)-3-[6-{[(1S)-1-Cyclopropyl-2,2,2-trifluoroethyl]carbamoyl}-5-oxo-8-(2,4,6-trifluorophenyl)-5,8-dihydro-1,8-naphthyridin-2-yl]-2-oxo-1,3-oxazolidine-5-carboxylic acid] showed a 50% effective concentration (EC50) under setting [2] of 3850 nM. The Emax (M2-GIRK1/4 reporter cells) is 100%.

`CN(C[C@H](O)CO)c1ccc2c(=O)c(C(=O)N[C@@H](C3CC3)C(F)(F)F)cn(-c3c(F)cc(F)cc3F)c2n1` [Example 491] registered an EC50 under setting [2] of 106 nM. For the same compound, the Emax (M2-GIRK1/4 reporter cells) came to 85.5%.

As for `CC(NC(=O)c1cn(-c2c(F)cc(F)cc2F)c2nc(N3C[C@@H](O)CC3=O)ccc2c1=O)(C1CC1)C(F)(F)F` (single isomer, unassigned) [Example 509], the midpoint of the response under setting [2], the EC50, lay at 7 nM. In addition, the Emax (M2-GIRK1/4 reporter cells) stood at 88%.

Under setting [2], `O=C(N[C@@H](C1CC1)C(F)(F)F)c1cn(-c2c(F)cc(F)cc2F)c2nc(N3CCOC(CO)C3)ccc2c1=O` (single isomer, unassigned) [Example 465, N-[(1 S)-1-Cyclopropyl-2,2,2-trifluoroethyl]-7-[2-(hydroxymethyl)morpholin-4-yl]-4-oxo-1-(2,4,6-trifluorophenyl)-1,4-dihydro-1,8-naphthyridine-3-carboxamide] registered an EC50 of 76 nM. For the same compound, the Efficiency (M2-GIRK1/4 reporter cells) is recorded as 89.0%.

The compound `CN(C)c1ccc2c(=O)c(C(=O)NC(C3CC3)C(F)(F)F)cn(-c3ccc(F)cc3F)c2n1` (racemic) [Example 148, rac-N-(1-Cyclopropyl-2,2,2-trifluoroethyl)-1-(2,4-difluorophenyl)-7-(dimethylamino)-4-oxo-1,4-dihydro-1,8-naphthyridine-3-carboxamide] came in with an EC50 under setting [1] of 41 nM.

On to `CC[C@@H](NC(=O)c1cn(-c2ccc(F)cc2F)c2nc(N3C(=O)CCC3C)ccc2c1=O)C(F)(F)F` (single isomer, unassigned) [Example 428], for which the midpoint of the response under setting [2], the EC50, lay at 72 nM. Besides, the Efficiency (M2-GIRK1/4 reporter cells) is listed as 86.0%.

`COC(=O)N1CCN(c2ccc3c(=O)c(C(=O)N[C@@H](C4CC4)C(F)(F)F)cn(-c4c(F)cc(F)cc4F)c3n2)CC1` [Example 603, Methyl 4-[6-{[(1 S)-1-cyclopropyl-2,2,2-trifluoroethyl]carbamoyl}-5-oxo-8-(2,4,6-trifluorophenyl)-5,8-dihydro-1,8-naphthyridin-2-yl]piperazine-1-carboxylate] came in with an EC50 under setting [2] of 25 nM. Besides, the Emax (M2-GIRK1/4 reporter cells) came out at 89.5%.

`O=C(N[C@H](C1CC1)C(F)(F)F)c1cn(-c2c(F)cc(F)cc2Cl)c2nc(N3CC4CC4(O)C3)ccc2c1=O` (mixture of isomers) [Example 415, 1-(2-Chloro-4,6-difluorophenyl)-N-[(1R)-1-cyclopropyl-2,2,2-trifluoroethyl]-7-[1-hydroxy-3-azabicyclo[3.1.0]hex-3-yl]-4-oxo-1,4-dihydro-1,8-naphthyridine-3-carboxamide]: the EC50 under setting [2] was 6 nM. Moreover, the Emax (M2-GIRK1/4 reporter cells) worked out at 96%.

With `CCCC(NC(=O)c1cn(-c2ccc(F)cc2F)c2nc(N(C)CCF)ccc2c1=O)C(F)(F)F` (centres unmarked) [Example 106, 1-(2,4-Difluorophenyl)-7-[(2-fluoroethyl)(methyl)amino]-4-oxo-N-[1,1,1-trifluoropentan-2-yl]-1,4-dihydro-1,8-naphthyridine-3-carboxamide], the EC50 under setting [1] is 32 nM.

Compound `CC[C@H](NC(=O)c1cn(-c2c(F)cc(F)cc2F)c2nc(N3CC(O)C4(CC4)C3)ccc2c1=O)C(F)(F)F` (single isomer, unassigned) [Example 620] gave an EC50 under setting [2] of 47 nM. The Emax (M2-GIRK1/4 reporter cells) came out at 100%.

As for `CC(C)C[C@@H](NC(=O)c1cn(-c2ccc(F)cc2F)c2nc(N(C)C)ccc2c1=O)C(F)(F)F` [Example 133, 1-(2,4-Difluorophenyl)-7-(dimethylamino)-4-oxo-N-[(2R)-1,1,1-trifluoro-4-methylpentan-2-yl]-1,4-dihydro-1,8-naphthyridine-3-carboxamide], the midpoint of the response under setting [1], the EC50, lay at 19 nM.

As to `O=C(NC1(CC(F)(F)F)CC1)c1cn(-c2c(F)cc(F)cc2F)c2nc(N3C[C@@H](O)[C@H](O)C3)ccc2c1=O` [Example 635, 7-[(3R,4R)-3,4-Dihydroxypyrrolidin-1-yl]-4-oxo-N-[1-(2,2,2-trifluoroethyl)cyclopropyl]-1-(2,4,6-trifluorophenyl)-1,4-dihydro-1,8-naphthyridine-3-carboxamide], the EC50 under setting [2] worked out at 59 nM. For the same compound, the Emax (M2-GIRK1/4 reporter cells) is 100%.

Compound `O=C(N[C@@H](C1CC1)C(F)(F)F)c1cn(-c2c(F)cc(F)cc2F)c2nc(N3CCOC3=O)ccc2c1=O` [Example 374, N-[(1S)-1-Cyclopropyl-2,2,2-trifluoroethyl]-4-oxo-7-(2-oxo-1,3-oxazolidin-1.3-yl)-1-(2,4,6-trifluorophenyl)-1,4-dihydro-1,8-naphthyridine-3-carboxamide] yielded an EC50 under setting [1] of 49 nM.

Turning to `CCC(NC(=O)c1cn(-c2c(F)cc(F)cc2F)c2nc(N3C[C@@H](O)CC3=O)ccc2c1=O)C(C)C` (single isomer, unassigned) [Example 486], the EC50 under setting [2] is 4 nM. For the same compound, the Efficiency (M2-GIRK1/4 reporter cells) turned out to be 100.0%.

Compound `O=C(NC12CC3CC(CC(C3)C1)C2)c1cn(-c2ccc(F)cc2F)c2nc(N3CCCS3(=O)=O)ccc2c1=O` [Example 167] showed an EC50 under setting [1] of 47 nM.

Under setting [1], `O=C(NC12CC3CC(CC(C3)C1)C2)c1cn(-c2ccc(F)cc2F)c2nc(N3CCOCC3=O)ccc2c1=O` [Example 172] registered an EC50 of 83 nM.

Take `CCC(NC(=O)c1cn(-c2c(F)cc(F)cc2F)c2nc(N3C[C@@H](O)CC3=O)ccc2c1=O)C(F)(F)C(F)(F)F` (mixture of isomers) [Example 519, 7-[(4S)-4-Hydroxy-2-oxopyrrolidin-1-yl]-4-oxo-N-[1,1,1,2,2-pentafluoropentan-3-yl]-1-(2,4,6-trifluorophenyl)-1,4-dihydro-1,8-naphthyridine-3-carboxamide]: the EC50 under setting [2] stood at 3 nM. For the same compound, the Emax (M2-GIRK1/4 reporter cells) turned out to be 96.7%.

For `CCCC(NC(=O)c1cn(-c2ccc(F)cc2F)c2nc(N(C)C)ccc2c1=O)C(F)(F)F` (racemic) [Example 144, rac-1-(2,4-Difluorophenyl)-7-(dimethylamino)-4-oxo-N-(1,1,1-trifluoropentan-2-yl)-1,4-dihydro-1,8-naphthyridine-3-carboxamide], under setting [1], a half-maximal effect (EC50) was put at 32 nM.

Under setting [2], `O=C(N[C@@H](C1CC1)C(F)(F)F)c1cn(-c2c(F)cc(F)cc2F)c2nc(N3CCC(O)C(O)C3)ccc2c1=O` (mixture of isomers) [Example 615, N-[(1 S)-1-Cyclopropyl-2,2,2-trifluoroethyl]-7-[trans-3,4-dihydroxypiperidin-1-yl]-4-oxo-1-(2,4,6-trifluorophenyl)-1,4-dihydro-1,8-naphthyridine-3-carboxamide] had an EC50 of 53 nM. Moreover, the Emax (M2-GIRK1/4 reporter cells) stood at 99.3%.

With `O=C(NC(CC(F)(F)F)C(F)(F)F)c1cn(-c2c(F)cc(F)cc2F)c2nc(N3CCNC3=O)ccc2c1=O` (racemic) [Example 587, N-[1,1,1,4,4,4-Hexafluorobutan-2-yl]-4-oxo-7-(2-oxoimidazolidin-1-yl)-1-(2,4,6-trifluorophenyl)-1,4-dihydro-1,8-naphthyridine-3-carboxamide], under setting [2], it took 14 nM to reach a half-maximal effect (EC50). The compound also registered an Efficiency (M2-GIRK1/4 reporter cells) of 93.5%.

Source of the values: US20190367516A1 (Bayer Pharma Aktiengesellschaft, priority 2015, published 2019).
